Results on 14 molecules are retold here after patent US20250170130A1, “MODULATORS OF MYC FAMILY PROTO-ONCOGENE PROTEIN” (Nalo Therapeutics, priority 2022, published 2025).

For experiment [1], the target named is T1, MycC (Homo sapiens, UniProt P01106).
T1 construct: endogenous in cells; host or cells: L363
The experiment can be described thus: Degradation of MycC protein in L363 cells, JESS/Western blot of lysates. It counts as cell-based. To be noted: L-363, 24 h, L-363 cells, 24 h; for Dmax at 0.5 µM: read-out: % Degradation of MycC (L-363) 24 h, 0.5 μM; for Dmax at 1 µM: read-out: % Degradation of MycC (L-363) 24 h, 1 μM; for Dmax at 3 µM: read-out: % Degradation of MycC (L-363) 24 h, 3 μM; for Dmax at 6 µM: read-out: % Degradation of MycC (L-363) 24 h, 6 μM. The method, boiled down: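 L363 suspension cells were seeded at 1E6 cells per well and exposed to compound (stock 10 mM in DMSO) for 24 hrs. Cells were collected, spun down, rinsed with PBS, lysed in RIPA buffer cocktail on ice, clarified and kept at −80 degrees. Lysate protein was quantified by BCA, and c-myc was measured on JESS by chemiluminescence with tubulin and GAPDH loading controls in the NIR channel.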
Background: A western blot detects proteins with antibodies after separation by electrophoresis.

Experiment [2] addresses T2, MycN (Homo sapiens, UniProt P04198).
T2 construct: endogenous in cells; host or cells: SK-N-BE(2)
T2 sequence (P04198 1-464): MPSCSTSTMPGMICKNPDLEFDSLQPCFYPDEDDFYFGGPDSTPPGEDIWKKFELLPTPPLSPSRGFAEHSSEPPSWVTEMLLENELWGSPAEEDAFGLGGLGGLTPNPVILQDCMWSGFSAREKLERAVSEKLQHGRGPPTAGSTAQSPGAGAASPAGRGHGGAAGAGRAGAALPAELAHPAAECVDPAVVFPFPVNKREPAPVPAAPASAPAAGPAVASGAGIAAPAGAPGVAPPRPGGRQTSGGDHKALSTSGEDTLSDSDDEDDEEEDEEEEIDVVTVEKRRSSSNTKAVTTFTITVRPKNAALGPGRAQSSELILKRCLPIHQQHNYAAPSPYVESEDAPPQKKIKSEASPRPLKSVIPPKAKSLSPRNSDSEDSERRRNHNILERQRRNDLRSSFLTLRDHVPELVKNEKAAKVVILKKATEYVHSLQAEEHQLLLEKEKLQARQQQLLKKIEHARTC
Description: Degradation of MycN protein in SK-N-BE(2) cells, JESS/Western blot of lysates. The experiment is classed as cell-based. Particulars: SKNBE2, 24 h, SKNBE2 cells, 24 h; for Dmax at 0.5 µM: read-out: % Degradation of MycN (SKNBE2) 24 h, 0.5 μM; for Dmax at 1 µM: read-out: % Degradation of MycN (SKNBE2) 24 h, 1 μM; for Dmax at 3 µM: read-out: % Degradation of MycN (SKNBE2) 24 h, 3 μM; for Dmax at 6 µM: read-out: % Degradation of MycN (SKNBE2) 24 h, 6 μM. The procedure, abridged: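 SK-N-BE(2) adherent cells (5E5 per well of a 6 well dish) were grown 24 hrs, then exposed to compounds diluted 1 in 20 in media, with DMSO controls, for 24 hrs. Cells were scraped, pelleted, PBS washed and lysed in RIPA buffer cocktail; after BCA protein quantitation, n-myc was detected by chemiluminescence on JESS/Western blot with tubulin and GAPDH loading controls read in the near infra red channel.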

The structures appear in SMILES notation.

T1 sequence (P01106 whole entry): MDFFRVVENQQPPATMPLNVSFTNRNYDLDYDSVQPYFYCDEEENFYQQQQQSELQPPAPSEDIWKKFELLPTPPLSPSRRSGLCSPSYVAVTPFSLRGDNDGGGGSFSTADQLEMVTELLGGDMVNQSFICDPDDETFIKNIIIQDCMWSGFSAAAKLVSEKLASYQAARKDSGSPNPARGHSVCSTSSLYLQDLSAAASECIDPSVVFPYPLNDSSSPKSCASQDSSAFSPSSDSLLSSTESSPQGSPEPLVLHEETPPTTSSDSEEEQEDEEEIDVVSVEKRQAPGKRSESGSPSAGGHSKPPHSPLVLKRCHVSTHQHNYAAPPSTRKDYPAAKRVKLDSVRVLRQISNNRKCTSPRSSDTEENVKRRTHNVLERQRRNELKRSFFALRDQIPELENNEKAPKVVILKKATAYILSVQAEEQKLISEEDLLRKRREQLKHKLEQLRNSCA

Take `FC(F)(F)CNCC12CC(C1)N(c1nccc(Nc3cc(C4CCCC4)[nH]n3)n1)C2` [Compound 71, N-(5-Cyclopentyl-1H-pyrazol-3-yl)-2-[4-[(2,2,2-trifluoroethylamino)methyl]-2-azabicyclo[2.1.1]hexan-2-yl]pyrimidin-4-amine]: in experiment [1], the Dmax at 0.5 µM lay within 20 to 49%, the Dmax at 1 µM lay within 80 to 100%, the Dmax at 3 µM was in the range of 80 to 100% and the Dmax at 6 µM fell in the range of 80 to 100%. Further, in experiment [2], the Dmax at 0.5 µM was in the range of 20 to 49%, the Dmax at 1 µM was in the range of 50 to 79%, the Dmax at 3 µM lay within 80 to 100% and the Dmax at 6 µM was 80 to 100%.

Turning to `NCC1CN(c2nccc(Nc3cc(C4CC4)[nH]n3)n2)CC1(F)F` (centres unmarked) [Compound 124, 2-[4-(Aminomethyl)-3,3-difluoro-pyrrolidin-1-yl]-N-(5-cyclopropyl-1H-pyrazol-3-yl)pyrimidin-4-amine], in experiment [1], the Dmax at 1 µM was less than 20% and the Dmax at 6 µM is 80 to 100%. Also, in experiment [2], the Dmax at 0.5 µM is 20 to 49%, the Dmax at 1 µM is 20 to 49%, the Dmax at 3 µM was in the range of 20 to 49% and the Dmax at 6 µM fell in the range of 80 to 100%.

Take `CC1(NCC23CC(C2)N(c2nccc(Nc4cc(C5CCCC5)[nH]n4)n2)C3)COC1` [Compound 69, N-(5-Cyclopentyl-1H-pyrazol-3-yl)-2-[4-[[(3-methyloxetan-3-yl)amino]methyl]-2-azabicyclo[2.1.1]hexan-2-yl]pyrimidin-4-amine]: in experiment [1], the Dmax at 0.5 µM is less than 20%, the Dmax at 3 µM was in the range of 80 to 100% and the Dmax at 6 µM was in the range of 80 to 100%. Also, in experiment [2], the Dmax at 0.5 µM is 20 to 49%, the Dmax at 1 µM fell in the range of 20 to 49%, the Dmax at 3 µM was 80 to 100% and the Dmax at 6 µM was 80 to 100%.

With `CN(C)[C@H]1CCN(c2nccc(Nc3cc(C4CC4)[nH]n3)n2)C1` [Compound 9, (S)—N-(5-Cyclopropyl-1H-pyrazol-3-yl)-2-(3-(dimethylamino)pyrrolidin-1-yl)pyrimidin-4-amine], in experiment [1], the Dmax at 0.5 µM was 20 to 49%, the Dmax at 1 µM lay within 20 to 49%, the Dmax at 3 µM was in the range of 20 to 49% and the Dmax at 6 µM was 80 to 100%. In addition, in experiment [2], the Dmax at 0.5 µM is 20 to 49%, the Dmax at 1 µM is 20 to 49%, the Dmax at 3 µM was less than 20% and the Dmax at 6 µM was less than 20%.

On to `CN(C)CCCNc1nccc(Nc2cc(C3CC3)[nH]n2)n1` [Compound 20, N4-(5-Cyclopropyl-1H-pyrazol-3-yl)-N2-[3-(dimethylamino)propyl]pyrimidine-2,4-diamine], for which the Dmax at 6 µM in experiment [1] is less than 20%. In experiment [2], the Dmax at 0.5 µM was less than 20%, the Dmax at 1 µM was less than 20%, the Dmax at 3 µM was 20 to 49% and the Dmax at 6 µM was in the range of 50 to 79%.

Consider `CN1CCCC2(C1)CN(c1nccc(Nc3cc(C4CC4)[nH]n3)n1)C2` [Compound 104, N-(5-cyclopropyl-1H-pyrazol-3-yl)-2-(8-methyl-2,8-diazaspiro[3.5]nonan-2-yl)pyrimidin-4-amine], for which, in experiment [1], the Dmax at 1 µM is less than 20% and the Dmax at 6 µM is 20 to 49%. For the same molecule, in experiment [2], the Dmax at 1 µM was less than 20%, the Dmax at 3 µM lay within 20 to 49% and the Dmax at 6 µM was 20 to 49%.

`NC[C@H]1CCCN(c2nccc(Nc3cc(C4CCCC4)[nH]n3)n2)C1` [Compound 108, 2-[(3R)-3-(Aminomethyl)-1-piperidyl]-N-(5-cyclopentyl-1H-pyrazol-3-yl)pyrimidin-4-amine]: in experiment [1], the Dmax at 3 µM was 80 to 100% and the Dmax at 6 µM was 80 to 100%. Moreover, in experiment [2], the Dmax at 0.5 µM is less than 20%, the Dmax at 1 µM fell in the range of 50 to 79%, the Dmax at 3 µM lay within 50 to 79% and the Dmax at 6 µM is 80 to 100%.

Regarding `NC[C@@H]1CCCN(c2nccc(Nc3cc(C4CC4)[nH]n3)n2)C1` [Compound 24, 2-[(3S)-3-(aminomethyl)-1-piperidyl]-N-(5-cyclopropyl-1H-pyrazol-3-yl)pyrimidin-4-amine], in experiment [1], the Dmax at 0.5 µM is less than 20%, the Dmax at 3 µM was in the range of 80 to 100% and the Dmax at 6 µM lay within 80 to 100%. In addition, in experiment [2], the Dmax at 0.5 µM lay within 20 to 49%, the Dmax at 1 µM fell in the range of 50 to 79%, the Dmax at 3 µM was in the range of 80 to 100% and the Dmax at 6 µM lay in the range of 80 to 100%.

Regarding `CNCC12CC(C1)N(c1nc3c(c(Nc4cc(C5CCCC5)[nH]n4)n1)CCC3)C2` [Compound 183, N-(5-Cyclopentyl-1H-pyrazol-3-yl)-2-[4-(methylaminomethyl)-2-azabicyclo[2.1.1]hexan-2-yl]-6,7-dihydro-5H-cyclopenta[d]pyrimidin-4-amine], in experiment [1], the Dmax at 3 µM is 80 to 100% and the Dmax at 6 µM lay within 80 to 100%. In addition, in experiment [2], the Dmax at 0.5 µM lay in the range of 20 to 49%, the Dmax at 1 µM is 50 to 79%, the Dmax at 3 µM was 80 to 100% and the Dmax at 6 µM lay within 80 to 100%.

Turning to `c1cc(Nc2cc(C3CC3)[nH]n2)nc(N2CCC(C3CNC3)C2)n1` (racemic) [Compound 39, (±)-2-[3-(azetidin-3-yl)pyrrolidin-1-yl]-N-(5-cyclopropyl-1H-pyrazol-3-yl)pyrimidin-4-amine], the Dmax at 1 µM in experiment [1] lay within 20 to 49%. In experiment [2], the Dmax at 1 µM is less than 20%, the Dmax at 3 µM fell in the range of 20 to 49% and the Dmax at 6 µM lay within 20 to 49%.

Turning to `c1cc(Nc2cc(C3CC3)[nH]n2)nc(N2CC3(CNC3)C2)n1` [Compound 6, N-(5-Cyclopropyl-1H-pyrazol-3-yl)-2-(2,6-diazaspiro[3.3]heptan-2-yl)pyrimidin-4-amine], in experiment [1], the Dmax at 0.5 µM was less than 20%, the Dmax at 1 µM was 20 to 49%, the Dmax at 3 µM was less than 20% and the Dmax at 6 µM was in the range of 20 to 49%. Further, in experiment [2], the Dmax at 0.5 µM was less than 20%, the Dmax at 1 µM was less than 20%, the Dmax at 3 µM was less than 20% and the Dmax at 6 µM was less than 20%.

Turning to `CN(C)C[C@H]1CCN(c2nccc(Nc3cc(C4CC4)[nH]n3)n2)C1` (stereo in doubt) [Compound 32, N-(5-cyclopropyl-1H-pyrazol-3-yl)-2-[rac-(3R)-3-[(dimethylamino)methyl]pyrrolidin-1-yl]pyrimidin-4-amine], in experiment [1], the Dmax at 1 µM was less than 20% and the Dmax at 6 µM was less than 20%. Further, in experiment [2], the Dmax at 0.5 µM was 20 to 49%, the Dmax at 1 µM is 20 to 49%, the Dmax at 3 µM lay within 50 to 79% and the Dmax at 6 µM fell in the range of 50 to 79%.

`CNCC12CC(C1)N(c1ncc(C)c(Nc3cc(C4CCCC4)[nH]n3)n1)C2` [Compound 182, N-(5-Cyclopentyl-1H-pyrazol-3-yl)-5-methyl-2-[4-(methylaminomethyl)-2-azabicyclo[2.1.1]hexan-2-yl]pyrimidin-4-amine]: the Dmax at 6 µM in experiment [1] is 80 to 100%. Also, in experiment [2], the Dmax at 0.5 µM lay in the range of 20 to 49%, the Dmax at 1 µM is 20 to 49%, the Dmax at 3 µM was in the range of 80 to 100% and the Dmax at 6 µM was in the range of 80 to 100%.

For `c1cc(Nc2cc(C3CCCC3)[nH]n2)nc(N2CC3(CCCNC3)C2)n1` [Compound 106, N-(5-Cyclopentyl-1H-pyrazol-3-yl)-2-(2,8-diazaspiro[3.5]nonan-2-yl)pyrimidin-4-amine], in experiment [1], the Dmax at 0.5 µM is less than 20%, the Dmax at 1 µM is less than 20%, the Dmax at 3 µM was less than 20% and the Dmax at 6 µM was less than 20%. In experiment [2], the Dmax at 0.5 µM is less than 20%, the Dmax at 1 µM was less than 20%, the Dmax at 3 µM fell in the range of 20 to 49% and the Dmax at 6 µM was in the range of 20 to 49%.
